Source: patent publication US20150374646A1, “TREATMENT OF CANCER AND OTHER CONDITIONS USING A TRANSCRIPTION FACTOR MODULATOR” (C & C BIOPHARMA, LLC, priority 2013, published 2015)

Key:
[1] = tested on: Nalm-6; experiment: Leukemia cell growth inhibition, CellTiter-Glo (Example 1); format: cell-based, human; settings: Nalm-6 cells, 4 μM
Description: (§2) Various human leukemia cells were grown to the logarithmic growth phase and seeded into 24-well plates. […] Treated cells were further incubated for 72 hours and then were examined for cell proliferation. Cell proliferation was determined using the CellTiter-Glo Luminescence Cell Viability assay (Promega Corporation, Madison, Wis.) according to the manufacturer's protocol. The calculated inhibition rate was determined with the following formula: Inhibition rate (%)=(1−Luminescence of experimental group/Luminescence of control group)×100. IC50 is the calculated concentration of a compound needed to inhibit half of the maximum cell growth (equivalent to cell growth in control group) based on the corresponding dose-response curve under the described experimental conditions.

[2] = tested on: REH; experiment: as above; format: cell-based, human; settings: REH cells, 4 μM
Description: as §2

[3] = tested on: HL60; experiment: as above; format: cell-based, human; settings: HL60 cells, 4 μM
Description: as §2

[4] = tested on: SF-539; experiment: Cancer cell line growth inhibition, CellTiter-Glo (Example 3); format: cell-based; settings: Homo sapiens, CNS, 72 hours, read-out: growth inhibition of various human cancer cell lines
Description: (§1) YT30 was tested for growth inhibition against 67 human cancer cell lines derived from diverse tissues including the National Cancer Institute human cancer cell lines (NCI-60). […] Cells in different wells were treated with various concentrations of YT30, YT86, YT88, or YT128. […] Cell viabilities were determined by the CellTiter-Glo Luminescence Cell Viability assay kit (Promega Corporation, Madison, Wis.) according to manufacturer's protocol.

[5] = tested on: OVCAR-4; experiment: as above; format: cell-based; settings: Homo sapiens, Ovarian, 72 hours, read-out: growth inhibition of various human cancer cell lines
Description: as §1

[6] = tested on: 786-0; experiment: as above; format: cell-based; settings: Homo sapiens, Renal, 72 hours, read-out: growth inhibition of various human cancer cell lines
Description: as §1

[7] = tested on: U251; experiment: as above; format: cell-based; settings: Homo sapiens, U-251, CNS, 72 hours, read-out: growth inhibition of various human cancer cell lines
Description: as §1

[8] = tested on: DU-145; experiment: as above; format: cell-based; settings: Homo sapiens, Prostate, 72 hours, read-out: growth inhibition of various human cancer cell lines
Description: as §1

[9] = tested on: HeLa; experiment: as above; format: cell-based; settings: Homo sapiens, Cervical, 72 hours, read-out: growth inhibition of various human cancer cell lines
Description: as §1

[10] = tested on: MCF7; experiment: as above; format: cell-based; settings: Homo sapiens, Breast, MCF-7, 72 hours, read-out: growth inhibition of various human cancer cell lines
Description: as §1

[11] = tested on: MDA-MB-468; experiment: as above; format: cell-based; settings: Homo sapiens, Breast, 72 hours, read-out: growth inhibition of various human cancer cell lines
Description: as §1

[12] = tested on: MOLT-4; experiment: as above; format: cell-based; settings: Homo sapiens, Leukemia, 72 hours, read-out: growth inhibition of various human cancer cell lines
Description: as §1

[13] = tested on: T-47D; experiment: as above; format: cell-based; settings: Homo sapiens, T47D, Breast, 72 hours, read-out: growth inhibition of various human cancer cell lines
Description: as §1

[14] = tested on: SN12C; experiment: as above; format: cell-based; settings: Homo sapiens, Renal, 72 hours, read-out: growth inhibition of various human cancer cell lines
Description: as §1

[15] = tested on: SNB-19; experiment: as above; format: cell-based; settings: Homo sapiens, CNS, 72 hours, read-out: growth inhibition of various human cancer cell lines
Description: as §1

[16] = tested on: HS 578T; experiment: as above; format: cell-based; settings: Homo sapiens, Breast, 72 hours, read-out: growth inhibition of various human cancer cell lines
Description: as §1

[17] = tested on: HL60; experiment: as above; format: cell-based; settings: Homo sapiens, HL-60, Leukemia, 72 hours, read-out: growth inhibition of various human cancer cell lines
Description: as §1

[18] = tested on: Caski; experiment: as above; format: cell-based; settings: Homo sapiens, Ca-Ski, Cervical, 72 hours, read-out: growth inhibition of various human cancer cell lines
Description: as §1

[19] = tested on: SF-268; experiment: as above; format: cell-based; settings: Homo sapiens, CNS, 72 hours, read-out: growth inhibition of various human cancer cell lines
Description: as §1

[20] = tested on: K562; experiment: as above; format: cell-based; settings: Homo sapiens, Leukemia, 72 hours, read-out: growth inhibition of various human cancer cell lines
Description: as §1

[21] = tested on: CCRF-CEM; experiment: as above; format: cell-based; settings: Homo sapiens, Leukemia, 72 hours, read-out: growth inhibition of various human cancer cell lines
Description: as §1

[22] = tested on: NCI/ADR-RES; experiment: as above; format: cell-based; settings: Homo sapiens, Breast, 72 hours, read-out: growth inhibition of various human cancer cell lines
Description: as §1

[23] = tested on: SF-295; experiment: as above; format: cell-based; settings: Homo sapiens, CNS, 72 hours, read-out: growth inhibition of various human cancer cell lines
Description: as §1

[24] = tested on: siHa; experiment: as above; format: cell-based; settings: Homo sapiens, Cervical, 72 hours, read-out: growth inhibition of various human cancer cell lines
Description: as §1

[25] = tested on: BT-549; experiment: as above; format: cell-based; settings: Homo sapiens, Breast, 72 hours, read-out: growth inhibition of various human cancer cell lines
Description: as §1

[26] = tested on: SR; experiment: as above; format: cell-based; settings: Homo sapiens, Leukemia, 72 hours, read-out: growth inhibition of various human cancer cell lines
Description: as §1

[27] = tested on: OVCAR-3; experiment: as above; format: cell-based; settings: Homo sapiens, Ovarian, 72 hours, read-out: growth inhibition of various human cancer cell lines
Description: as §1

[28] = tested on: UO-31; experiment: as above; format: cell-based; settings: Homo sapiens, Renal, 72 hours, read-out: growth inhibition of various human cancer cell lines
Description: as §1

[29] = tested on: MDA-MB231; experiment: as above; format: cell-based; settings: Homo sapiens; Breast, MDA-MB-231; 72 hours; read-out: growth inhibition of various human cancer cell lines
Description: as §1

[30] = tested on: A498; experiment: as above; format: cell-based; settings: Homo sapiens, Renal, 72 hours, read-out: growth inhibition of various human cancer cell lines
Description: as §1

[31] = tested on: SNB-75; experiment: as above; format: cell-based; settings: Homo sapiens, CNS, 72 hours, read-out: growth inhibition of various human cancer cell lines
Description: as §1

[32] = tested on: OVCAR-5; experiment: as above; format: cell-based; settings: Homo sapiens, Ovarian, 72 hours, read-out: growth inhibition of various human cancer cell lines
Description: as §1

[33] = tested on: MDA-MB-435; experiment: as above; format: cell-based; settings: Homo sapiens, Breast, 72 hours, read-out: growth inhibition of various human cancer cell lines
Description: as §1

[34] = tested on: TK-10; experiment: as above; format: cell-based; settings: Homo sapiens, Renal, 72 hours, read-out: growth inhibition of various human cancer cell lines
Description: as §1

For Nc1ccccc1NC(=O)Cc1cccc(CC(=O)Nc2ccccc2N)c1 [YT19], the “Growth inhibition (FIG. 1)” value [1] was “failed to inhibit cell growth”, the “Growth inhibition (FIG. 1)” value [2] was “failed to inhibit cell growth” and the “Growth inhibition (FIG. 1)” value [3] was “failed to inhibit cell growth”.
For Nc1ccccc1NC(=O)CCCCCNC(=O)c1ccc(-c2ccccc2)o1 [YT88], the IC50 [4] was 6.91 µM, the IC50 [5] was 11.9 µM and the IC50 [6] was 13.8 µM. It also gave an IC50 [7] of 4.38 µM, an IC50 [8] of 16.2 µM and an IC50 [9] of 6.02 µM. It also gave an IC50 [10] of 3.8 µM, an IC50 [11] of 7.42 µM and an IC50 [12] of 3 µM. The IC50 [13] was 15 µM, the IC50 [14] was 7.25 µM and the IC50 [15] was 9.61 µM. The IC50 [16] was 5.67 µM, the IC50 [17] was 6.97 µM and the IC50 [18] was 14.2 µM. For the same molecule, the IC50 [19] was 14.4 µM, the IC50 [20] was 5.74 µM and the IC50 [21] was 2.65 µM. For the same molecule, the IC50 [22] was 14.2 µM, the IC50 [23] was 6.83 µM and the IC50 [24] was 9.07 µM. For the same molecule, the IC50 [25] was 10.6 µM, the IC50 [26] was 5.89 µM and the IC50 [27] was 6.57 µM. For the same molecule, the IC50 [28] was 9.53 µM, the IC50 [29] was 4.28 µM and the IC50 [30] was 9.54 µM. For the same molecule, the IC50 [31] was 11.2 µM, the IC50 [32] was 5.66 µM and the IC50 [33] was 7.59 µM. It also gave an IC50 [34] of 13.4 µM.
